# From paper PMC8776995 (Frontiers in Chemistry, 2022)
# Several values for one entry are separate records, joined by “and”; a condition that tells them apart may be missing. Equal entries are not always repeated.
# Columns and labels:
# [1] = system: H1975 cells; experiment: CCK-8 antiproliferation assay, H1975; conditions: for Inhibitory efficacy: H1975 cells; for IC50: NCI-H1975, 48 h, read-out: IC50 (μM) H1975, CCK-8, 48 h, average ± SD of three independent experiments
# Procedure: (§1) The compounds were dissolved in DMSO to make a 20 μM stock solution and diluted to the concentration of working solutions with complete growth medium before administration.
# (§2) Cells were seeded in 96-well plates: 3,000–5,000 cells/well in 100 ul. One day after seeding, the test compounds at concentration between 1.0 and 16.0 μ M or 0.1% DMSO (as control) were added to cells in triplicate. 48 h later, CCK-8 was added and incubated the plate for 1–4 h in the incubator. The absorbance at 450 nm were measured using a microplate reader (Bio-Tek).
# [2] = system: PC-9 cells; experiment: CCK-8 antiproliferation assay, PC-9; conditions: for IC50: PC-9, 48 h, read-out: IC50 (μM) PC-9; for Inhibitory efficacy: single repeats (Repeat 1-3), given as fraction
# Procedure: as §1, §2
# [3] = system: H460 cells; experiment: CCK-8 antiproliferation assay, H460; conditions: for Inhibitory efficacy: H460 cells; for IC50: NCI-H460, 48 h, read-out: IC50 (μM) H460, CCK-8, 48 h, average ± SD of three independent experiments
# [4] = molecular target: wild-type EGFR (Homo sapiens, UniProt P00533); experiment: EGFR kinase assay (ELISA); conditions: for IC50: IC50 (μM) EGFR, ELISA, 3 μmol/L ATP; for A450: raw ELISA absorbance
# Chain of wild-type EGFR (P00533 25-1210): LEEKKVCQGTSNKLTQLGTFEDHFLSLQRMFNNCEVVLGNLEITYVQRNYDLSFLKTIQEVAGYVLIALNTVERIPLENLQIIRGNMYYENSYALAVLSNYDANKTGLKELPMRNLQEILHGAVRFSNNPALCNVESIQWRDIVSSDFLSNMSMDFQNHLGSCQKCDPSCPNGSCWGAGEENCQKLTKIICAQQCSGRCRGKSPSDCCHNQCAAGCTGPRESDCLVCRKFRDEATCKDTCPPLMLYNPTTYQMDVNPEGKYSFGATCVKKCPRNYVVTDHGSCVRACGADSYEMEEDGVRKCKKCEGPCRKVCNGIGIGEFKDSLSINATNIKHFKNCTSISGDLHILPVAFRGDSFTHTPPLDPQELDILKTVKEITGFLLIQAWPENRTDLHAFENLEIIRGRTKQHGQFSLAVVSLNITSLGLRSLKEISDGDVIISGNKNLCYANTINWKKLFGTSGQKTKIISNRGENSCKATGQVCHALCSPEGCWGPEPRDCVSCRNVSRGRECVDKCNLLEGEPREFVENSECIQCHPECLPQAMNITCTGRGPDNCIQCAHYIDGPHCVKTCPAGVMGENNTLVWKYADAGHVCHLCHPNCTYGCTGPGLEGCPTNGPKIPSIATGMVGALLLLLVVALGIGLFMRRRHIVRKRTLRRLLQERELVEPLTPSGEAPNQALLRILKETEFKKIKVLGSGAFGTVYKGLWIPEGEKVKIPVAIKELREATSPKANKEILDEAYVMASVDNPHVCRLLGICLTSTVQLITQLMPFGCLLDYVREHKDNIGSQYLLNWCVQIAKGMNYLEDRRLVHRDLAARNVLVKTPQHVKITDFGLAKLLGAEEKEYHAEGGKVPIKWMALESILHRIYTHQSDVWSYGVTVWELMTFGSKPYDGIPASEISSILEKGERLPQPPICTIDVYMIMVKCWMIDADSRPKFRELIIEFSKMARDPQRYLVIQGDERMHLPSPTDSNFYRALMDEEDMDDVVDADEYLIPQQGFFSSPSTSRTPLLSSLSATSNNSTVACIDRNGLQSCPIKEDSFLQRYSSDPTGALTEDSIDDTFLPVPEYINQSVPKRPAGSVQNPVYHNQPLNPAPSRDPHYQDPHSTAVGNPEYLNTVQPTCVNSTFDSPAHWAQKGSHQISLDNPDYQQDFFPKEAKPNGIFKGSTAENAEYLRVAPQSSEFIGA
# [5] = system: A549 cells; experiment: CCK-8 antiproliferation assay, A549; conditions: for IC50: A549, 48 h, read-out: IC50 (μM) A549, CCK-8, 48 h, average ± SD of three independent experiments; for Inhibitory efficacy: A549 cells
# [6] = 2uM, given as fraction, Repeat 1-3
# [7] = 4uM, given as fraction, Repeat 1-3
# [8] = 8uM, given as fraction, Repeat 1-3
# [9] = 16uM, given as fraction, Repeat 1-3
# [10] = Homo sapiens, NCI-H1975, read-out: Inhibitory efficacy, H1975 cells, 2uM, given as fraction, Repeat 1-3
# [11] = Homo sapiens, NCI-H1975, read-out: Inhibitory efficacy, H1975 cells, 4uM, given as fraction, Repeat 1-3
# [12] = Homo sapiens, NCI-H1975, read-out: Inhibitory efficacy, H1975 cells, 8uM, given as fraction, Repeat 1-3
# [13] = Homo sapiens, NCI-H1975, read-out: Inhibitory efficacy, H1975 cells, 16uM, given as fraction, Repeat 1-3
# [14] = concentration 0.03 nM, one value per replicate column, 3e-05 µM
# [15] = concentration 0.3 nM, one value per replicate column, 0.0003 µM
# [16] = concentration 3 nM, one value per replicate column, 0.003 µM
# [17] = concentration 30 nM, one value per replicate column, 0.03 µM
# [18] = concentration 300 nM, one value per replicate column, 0.3 µM
# [19] = concentration 3000 nM, one value per replicate column
# [20] = concentration 3000 nM, one value per replicate column, 3 µM
# [21] = 1uM, given as fraction, Repeat 1-3
compound,measurement,setting,value
"COCCOc1cc2ncnc(Nc3cccc(-c4cn(Cc5ccccc5)nn4)c3)c2cc1OCCOC [e1, [3-(1-Benzyl-1H-[1,2,3]triazol-4-yl)-phenyl]-[6,7-bis-(2-methoxy-ethoxy)-quinazolin-4-yl]-amine]",melting point,,89 to 92 °C
same,Inhibitory efficacy,[1]; [6],0.214 and 0.1313
same,Inhibitory efficacy,[1]; [7],0.2001 and 0.2011
same,Inhibitory efficacy,[1]; [8],0.2439 and 0.3137
same,Inhibitory efficacy,[1]; [9],0.3018 and 0.3516
same,IC50,[1]; Homo sapiens,> 100 µM
same,inhibition at 2 µM,[1]; [10],24.3%
same,inhibition at 4 µM,[1]; [11],28.4%
same,inhibition at 8 µM,[1]; [12],25.2%
same,inhibition at 16 µM,[1]; [13],37.9%
same,IC50,[2]; Homo sapiens,> 100 µM
same,inhibition at 4 µM,"[2]; Homo sapiens, PC-9, read-out: Inhibitory efficacy, PC-9, 4uM, single repeats (Repeat 1-3), given as fraction",13.4%
same,Inhibitory efficacy,"[2]; PC-9, 4uM, 4 µM",0.07898 and 0.104
same,Inhibitory efficacy,[3]; [6],0.09593 and 0.09213
same,IC50,[3]; Homo sapiens,> 100 µM
same,inhibition at 2 µM,"[3]; Homo sapiens, NCI-H460, read-out: Inhibitory efficacy, H460 cells, 2uM, given as fraction, Repeat 1-3",11.9%
same,IC50,[4],1.34 µM
same,Inhibition,[4]; [14],3.106 and 6.667
same,inhibition at 0.0003 µM,"[4]; concentration 0.3 nM, one value per replicate column",14.9%
same,Inhibition,[4]; [15],12.7273
same,inhibition at 0.003 µM,"[4]; concentration 3 nM, one value per replicate column",15.5%
same,Inhibition,[4]; [16],27.2727
same,inhibition at 0.03 µM,"[4]; concentration 30 nM, one value per replicate column",28%
same,Inhibition,[4]; [17],34.5455
same,inhibition at 0.3 µM,"[4]; concentration 300 nM, one value per replicate column",34.2%
same,Inhibition,[4]; [18],43.6364
same,inhibition at 3 µM,[4]; [19],43.5%
same,Inhibition,[4]; [20],45.4545
same,inhibition at 30 µM,"[4]; concentration 30000 nM, one value per replicate column",73.9%
same,Inhibition,"[4]; concentration 30000 nM, one value per replicate column, 30 µM",80.6061
same,A450,[4]; concentration 0.0001 nM,0.408 and 0.407
same,A450,[4]; concentration 0.03 nM,0.403 and 0.396
same,A450,[4]; concentration 0.3 nM,0.384 and 0.386
same,A450,[4]; concentration 3 nM,0.383 and 0.362
same,A450,[4]; concentration 30 nM,0.363 and 0.35
same,A450,[4]; concentration 300 nM,0.353 and 0.335
same,A450,[4]; concentration 3000 nM,0.338 and 0.332
same,A450,[4]; concentration 30000 nM,0.289 and 0.274
same,IC50,[5]; Homo sapiens,> 100 µM
"COCCOc1cc2ncnc(Nc3cccc(-c4cn(-c5cccc([N+](=O)[O-])c5)nn4)c3)c2cc1OCCOC [e13, [6,7-Bis-(2-methoxy-ethoxy)-quinazolin-4-yl]-{3-[1-(3-nitro-phenyl)-1H-[1,2,3]triazol-4-yl]-phenyl}-amine]",melting point,,98 to 101 °C
same,Inhibitory efficacy,[1]; [21],0.09975 and 0.197
same,Inhibitory efficacy,[1]; [6],0.1652 and 0.1521
same,Inhibitory efficacy,[1]; [7],0.1521 and 0.1128
same,Inhibitory efficacy,[1]; [8],0.1633 and 0.2344
same,Inhibitory efficacy,[1]; [9],0.1933 and 0.2774
same,IC50,[1]; Homo sapiens,> 100 µM
same,inhibition at 1 µM,"[1]; Homo sapiens, NCI-H1975, read-out: Inhibitory efficacy, H1975 cells, 1uM, given as fraction, Repeat 1-3",14.3%
same,inhibition at 2 µM,[1]; [10],25.5%
same,inhibition at 4 µM,[1]; [11],15%
same,inhibition at 8 µM,[1]; [12],24.2%
same,inhibition at 16 µM,[1]; [13],21%
same,IC50,[2]; Homo sapiens,22.6 ± 1.16 µM
same,inhibition at 8 µM,"[2]; Homo sapiens, PC-9, read-out: Inhibitory efficacy, PC-9, 8uM, single repeats (Repeat 1-3), given as fraction",12.1%
same,inhibition at 16 µM,"[2]; Homo sapiens, PC-9, read-out: Inhibitory efficacy, PC-9, 16uM, single repeats (Repeat 1-3), given as fraction",28.6%
same,Inhibitory efficacy,"[2]; PC-9, 8uM, 8 µM",0.1077 and 0.1459
same,Inhibitory efficacy,"[2]; PC-9, 16uM, 16 µM",0.2884 and 0.3336
same,Inhibitory efficacy,[3]; [7],0.3261 and 0.3299
same,Inhibitory efficacy,[3]; [8],0.4209 and 0.401
same,Inhibitory efficacy,[3]; [9],0.4769 and 0.494
same,IC50,[3]; Homo sapiens,11.9 ± 3.63 µM
same,inhibition at 4 µM,"[3]; Homo sapiens, NCI-H460, read-out: Inhibitory efficacy, H460 cells, 4uM, given as fraction, Repeat 1-3",42.4%
same,inhibition at 8 µM,"[3]; Homo sapiens, NCI-H460, read-out: Inhibitory efficacy, H460 cells, 8uM, given as fraction, Repeat 1-3",54.8%
same,inhibition at 16 µM,"[3]; Homo sapiens, NCI-H460, read-out: Inhibitory efficacy, H460 cells, 16uM, given as fraction, Repeat 1-3",56.2%
same,IC50,[4],4.74 µM
same,inhibition at 100 fM,"[4]; concentration 0.0001 nM (reference for normalisation), one value per replicate column",0%
same,Inhibition,[4]; [14],3.252
same,Inhibition,[4]; [15],1.084 and 9.485
same,Inhibition,[4]; [16],4.065 and 14.0921
same,Inhibition,[4]; [17],5.691 and 21.1382
same,Inhibition,[4]; [18],10.0271 and 28.9973
same,inhibition at 3 µM,[4]; [19],30.9%
same,Inhibition,[4]; [20],29.5393
same,A450,[4]; concentration 0.0001 nM,0.702 and 0.668
same,A450,[4]; concentration 0.03 nM,0.702 and 0.656
same,A450,[4]; concentration 0.3 nM,0.698 and 0.633
same,A450,[4]; concentration 3 nM,0.687 and 0.616
same,A450,[4]; concentration 30 nM,0.681 and 0.59
same,A450,[4]; concentration 300 nM,0.665 and 0.561
same,A450,[4]; concentration 3000 nM,0.588 and 0.559
same,A450,[4]; concentration 30000 nM,0.333 and 0.299
same,Inhibitory efficacy,[5]; [21],0.1588 and 0.1553
same,Inhibitory efficacy,[5]; [6],0.352 and 0.366
same,Inhibitory efficacy,[5]; [7],0.5268 and 0.5198
same,Inhibitory efficacy,[5]; [8],0.5749 and 0.6133
same,Inhibitory efficacy,[5]; [9],0.6238 and 0.6256
same,IC50,[5]; Homo sapiens,5.95 ± 1.47 µM
same,inhibition at 1 µM,"[5]; Homo sapiens, A549, read-out: Inhibitory efficacy, A549 cells, 1uM, given as fraction, Repeat 1-3",8.71%
same,inhibition at 2 µM,"[5]; Homo sapiens, A549, read-out: Inhibitory efficacy, A549 cells, 2uM, given as fraction, Repeat 1-3",36.9%
same,inhibition at 4 µM,"[5]; Homo sapiens, A549, read-out: Inhibitory efficacy, A549 cells, 4uM, given as fraction, Repeat 1-3",44.6%
same,inhibition at 8 µM,"[5]; Homo sapiens, A549, read-out: Inhibitory efficacy, A549 cells, 8uM, given as fraction, Repeat 1-3",51.1%
same,inhibition at 16 µM,"[5]; Homo sapiens, A549, read-out: Inhibitory efficacy, A549 cells, 16uM, given as fraction, Repeat 1-3",56.8%
